Test results reported in patent publication US10617117B2, “Insect repellent composition and method of use” (NEO-INNOVA HEALTHCARE LIMITED, priority 2015, dated 2020).
Entries after “also recorded” stand apart in the source; their conditions may differ.

How the values were obtained:
[1] = Stability tests, accelerated storage 54° C. for 14 days (discoloration of vanillin); type: physicochemical; settings: room temperature and 54° C.; antioxidant added to vanillin-containing composition
Procedure: […] The front line accelerated conditions recommend testing at 54° C. for 14 days (see BPR 528/2012: Volume I. Part A, Chapter III: Requirements for Biocide Products, Version 1.1 Nov. 2014).

Aedes Aegypti = settings: at circa 50% concentrations, FIG. 1; cited from earlier work
[2] = human skin; cited from earlier work
[3] = tested on: Culex spp., Aedes spp., Mansonia spp., and Verrallina spp.; settings: compared with Anopheles spp.; cited from earlier work
[4] = tested on: biting flies, such as a mosquito; settings: in vivo; cited from earlier work
[5] = tested on: Aedes aegypti female mosquitoes; assay: laboratory arm or hand in cage test (complete protection time); type: in vivo; settings: Citriodiol as active substance, with vanillin, FIG. 14
Procedure: Complete protection times are calculated as the number of minutes (or hours) elapsed between the time of repellent application and the first mosquito landing or probing. Complete Protection Times are reported herein as a median value of protection time given by each individual. Complete Protection Times are abbreviated herein as CPTs. […]
Complete protection time provided by each product was evaluated by following hand in cage studies as per a modified WHO protocol (HTM/NTD/WHOPES/2009.4).
Typically, the test consisted of inserting a repellent treated arm into a cage measuring 35 cm on each side, containing laboratory bred 200 numbers of non-blood fed Aedes Aegypti mosquitoes which were approximately 5-7 days old and the elapsed time to first landing or probing (which refers to an insect landing and penetrating the skin with its mouthparts, without ingesting blood) was determined. […]
Readiness of the mosquitoes to bite (biting pressure) was checked by inserting un-treated arm for 1 minute prior to inserting treated arm at each 30-minute interval. […] Complete protection time was calculated as the number of minutes (or hours) elapsed between the time of repellent application and the first mosquito landing or probing. […]

| Compound | photosensitisation and secondary oxidation (discoloration) of vanillin [1] | CPTs compared with DEET [4] | other results |
| --- | --- | --- | --- |
| COc1ccc(O)c(C(C)(C)C)c1 [BHA] | negative | – | – |
| CCN(CC)C(=O)c1cccc(C)c1 [DEET, N,N-Diethyl-3-methylbenzamide] | – | – | CPT at which activity plateaus (Aedes Aegypti): 5 to 6 h; absorption through skin [2]: absorbed through human skin; protection against different mosquito genera [3]: longer against these genera than provided against Anopheles spp. |
| CCCCN(CCC(=O)OCC)C(C)=O [IR3535, ethyl butylacetylaminopropionate] | – | neither ethyl butylacetylaminopropionate (IR3535) nor Picaridin (KBR 3023) has demonstrated meaningful superiority to DEET | – |
| CCC(C)OC(=O)N1CCCCC1CCO (stereo not drawn) [Picaridin] | – | neither ethyl butylacetylaminopropionate (IR3535) nor Picaridin (KBR 3023) has demonstrated meaningful superiority to DEET | – |
| CCCOC(=O)c1cc(O)c(O)c(O)c1 [propyl gallate] | negative | – | – |
| O=S([O-])O.[Na+] [sodium bisulphite] | Lack of photosensitisation and secondary oxidation of vanillin; also recorded: one significant exception | – | effect of addition of 1% antioxidant on efficacy (CPTs) [5]: still further significant improvement in efficacy |
